The target of experiment [1] is T1, hA2AAR (Homo sapiens, UniProt P29274).
T1 construct: host or cells: CHO cells
The experiment is described as follows: Competition binding, [3H]ZM241385, hA2A CHO cell membranes. The note with it: displacement of [3H]ZM241385, hA2A CHO cells; mean ± SEM of four assays. Here is the method: (§1) CHO cells transfected with hA1, hA2A, hA2B and hA3 ARs (Perkin Elmer, Boston, MA, USA) were grown adherently and maintained in Dulbecco’s modified Eagle’s medium with nutrient mixture F12, containing 10% fetal calf serum, penicillin (100 U/mL), streptomycin (100 μg/mL), L-glutamine (2 mM) and geneticine (G418; 0.2 mg/mL), at 37 °C, in 5% CO2/95% air, until their use in cAMP assays. For membrane preparation, the culture medium was removed, and the cells were washed with phosphate-buffered saline and scraped off T75 flasks in ice-cold hypotonic buffer (5 mM Tris HCl, 1 mM EDTA, pH 7.4). The cell suspension was homogenized with a Polytron, centrifuged for 30 min at 40,000× g, at 4 °C, and the resulting membrane pellet was used for competition binding experiments.
All synthesized compounds were tested for their affinity to hA1, hA2A and hA3 ARs. Competition experiments to hA1AR were carried out by incubating 1 nM [^3H]-8-cyclopentyl-1,3-dipropylxanthine ([^3H]-DPCPX) with membrane suspension (50 μg of protein/100 μL) and different concentrations of the examined compounds at 25 °C for 90 min in 50 mM Tris HCl, pH 7.4. Non-specific binding was defined as binding in the presence of 1 μM DPCPX and was always <10% of the total binding. Inhibition experiments to hA2A ARs were performed by incubating the radioligand [^3H]-4-(-2-[7-amino-2-{2-furyl}{1,2,4}triazolo{2,3-a} {1,3,5}triazin-5-yl-amino]ethyl)phenol ([^3H]-ZM241385) (1 nM) with the membrane suspension (50 μg of protein/100 μL) and different concentrations of the examined compounds for 60 min, at 4 °C, in 50 mM Tris HCl (pH 7.4), 10 mM MgCl2. Non-specific binding was determined in the presence of ZM241385 (1 μM) and was about 20% of the total binding. Competition binding experiments to A3ARs were carried out by incubating the membrane suspension (50 μg of protein/100 μL) with 0.5 nM [^125I]-N6-(4-aminobenzyl)-N-methylcarboxamidoadenosine ([^125I]-ABMECA) in the presence of different concentrations of the examined compounds for an incubation time of 120 min, at 4 °C, in 50 mM Tris HCl (pH 7.4), 10 mM MgCl2, 1 mM EDTA. Non-specific binding was defined as binding in the presence of 1 μM ABMECA and was always <10% of the total binding. Bound and free radioactivity were separated by filtering the assay mixture through Whatman GF/B glass-fiber filters, using a Brandel cell harvester (Brandel Instruments, Unterföhring, Germany). The filter bound radioactivity was counted by Packard Tri Carb 2810 TR scintillation counter (Perkin Elmer).
The protein concentration was determined according to a Bio-Rad method, with bovine albumin as a standard reference. Inhibitory binding constant (Ki) values were calculated from those of IC50 according to the Cheng–Prusoff equation, Ki = IC50/(1 + [C*]/KD*), where [C*] is the concentration of the radioligand, and KD* its dissociation constant. Ki and IC50 values were calculated by non-linear regression analysis, using the equation for a sigmoid concentration-response curve (Graph-PAD Prism, San Diego, CA, USA).
In general terms: In a radioligand displacement assay an active substance lowers the binding of a labelled ligand.

The target of the next experiment is T2, hA2B AR (Homo sapiens, UniProt P29275).
T2 construct: host or cells: CHO cells
T2 sequence (P29275 1-332): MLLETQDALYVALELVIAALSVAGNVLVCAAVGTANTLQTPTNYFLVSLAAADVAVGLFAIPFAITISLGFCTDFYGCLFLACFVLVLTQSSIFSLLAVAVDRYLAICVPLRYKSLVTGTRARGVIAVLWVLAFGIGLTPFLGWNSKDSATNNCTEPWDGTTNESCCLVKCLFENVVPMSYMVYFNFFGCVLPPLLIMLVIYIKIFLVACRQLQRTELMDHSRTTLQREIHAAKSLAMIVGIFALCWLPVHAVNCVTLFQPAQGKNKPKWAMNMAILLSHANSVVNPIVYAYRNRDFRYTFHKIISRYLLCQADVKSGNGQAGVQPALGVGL
The experiment is described as follows: cAMP assay in CHO cells expressing hA2B AR (stimulation of cAMP production). In kind it is cell-based. The note with it: for Emax at 1 µM: CHO, 1 µM compound, in comparison with NECA (1 µM = 100%), read-out: Efficacy hA2B (cAMP assay) (converted); for EC50: hA2B CHO cells, mean ± SEM of four assays. Here is the method: (§2) The amino-3,5-dicyanopyridines 1–21 were tested for their affinity at hA1, hA2A and hA3 ARs, stably transfected in Chinese Hamster Ovary (CHO) cells. Moreover, they were also studied as hA2B agonists by evaluating their stimulatory effect on cAMP production in CHO cells, stably expressing the hA2B AR. […] Due to their interesting pan profile, both compounds 1 and 5 were evaluated as AR agonists also at the hA2A and hA3 subtypes.
as §1
(§3) CHO cells transfected with hAR subtypes were washed with phosphate-buffered saline, detached with tripsine and centrifuged for 10 min at 200× g. Cells were seeded in a 96-well white half-area microplate (Perkin Elmer, Boston, USA) in a stimulation buffer composed of Hank Balanced Salt Solution, 5 mM HEPES, 0.5 mM Ro 20–1724, 0.1% BSA. The cAMP levels were then quantified by using the AlphaScreen cAMP Detection Kit (Perkin Elmer, Boston, MA, USA), following the manufacturer’s instructions. At the end of the experiments, the plates were read with a Perkin Elmer EnSight Multimode Plate Reader.
(Cyclic AMP is a second messenger, typically raised through Gs and lowered through Gi signalling.)

For experiment [2], the target named is T1, hA2AAR. The experiment is described as follows: cAMP assay in hA2A CHO cells. In kind it is cell-based. The note with it: for EC50: cAMP assay, hA2A CHO cells; for hA2AAR Efficacy: normalized: CGS21680 full agonist = 100%. Here is the method:
as §2, §1, §3

From publication PMC9024521, “4-Heteroaryl Substituted Amino-3,5-Dicyanopyridines as New Adenosine Receptor Ligands: Novel Insights on Structure-Activity Relationships and Perspectives” (Pharmaceuticals, 2022) come the findings set out here.

For orientation: Ki means the equilibrium dissociation constant of an inhibitor or competing ligand from its target. A lower Ki goes with tighter binding. In general, EC50 refers to the concentration that produces a half-maximal response. High values mean a less potent agent, low ones a more potent agent.

SMILES strings stand for the structures.

T1 sequence (P29274 whole entry): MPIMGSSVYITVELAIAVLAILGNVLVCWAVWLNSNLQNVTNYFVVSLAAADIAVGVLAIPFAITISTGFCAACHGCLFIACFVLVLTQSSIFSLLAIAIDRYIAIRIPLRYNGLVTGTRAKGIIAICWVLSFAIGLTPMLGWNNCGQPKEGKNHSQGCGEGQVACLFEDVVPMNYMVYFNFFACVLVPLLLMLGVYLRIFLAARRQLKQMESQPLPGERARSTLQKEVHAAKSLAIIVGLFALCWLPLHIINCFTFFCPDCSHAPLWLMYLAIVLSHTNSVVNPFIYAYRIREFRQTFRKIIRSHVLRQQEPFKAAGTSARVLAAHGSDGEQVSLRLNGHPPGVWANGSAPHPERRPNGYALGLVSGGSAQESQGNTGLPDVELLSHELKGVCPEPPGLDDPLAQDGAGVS

Molecule `N#Cc1c(N)nc(SCc2ncc[nH]2)c(C#N)c1-c1ccco1` [Compound 1, 2-Amino-4-(furan-2-yl)-6-[(1H-imidazol-2-ylmethyl)sulfanyl]pyridine-3,5-dicarbonitrile] had a Ki at hA2AAR [1] of 21 ± 2 nM. Besides, at hA2B AR, the Emax at 1 µM was 52% and the EC50 amounted to 1.4 ± 0.2 nM. Also, at hA2AAR [2], the EC50 was found to be 15.1 ± 1.3 nM and the “hA2AAR Efficacy” value is 39 ± 3%.

On to `N#Cc1c(N)nc(SCc2ncc[nH]2)c(C#N)c1-c1cccs1` [Compound 5, 2-Amino-6-[(1H-imidazol-2-ylmethyl)sulfanyl]-4-(thiophen-2-yl)pyridine-3,5-dicarbonitrile], for which the Ki on hA2AAR [1] was found to be 24 ± 2 nM. Also, on hA2B AR, the Emax at 1 µM is 73% and the EC50 turned out to be 1.12 ± 0.11 nM. Further, on hA2AAR [2], the midpoint of the response, the EC50, lay at 11.3 ± 1 nM and the “hA2AAR Efficacy” value is 40 ± 3%.
